The results in this text go back to ChEMBL document CHEMBL4346720, “Review of the molecular mechanisms of Ganoderma lucidum triterpenoids: Ganoderic acids A, C2, D, F, DM, X and Y” (Eur J Med Chem, 2019).

One data set addresses T1, DNA topoisomerase 1 (Homo sapiens, UniProt P11387).
T1 sequence (P11387 whole entry): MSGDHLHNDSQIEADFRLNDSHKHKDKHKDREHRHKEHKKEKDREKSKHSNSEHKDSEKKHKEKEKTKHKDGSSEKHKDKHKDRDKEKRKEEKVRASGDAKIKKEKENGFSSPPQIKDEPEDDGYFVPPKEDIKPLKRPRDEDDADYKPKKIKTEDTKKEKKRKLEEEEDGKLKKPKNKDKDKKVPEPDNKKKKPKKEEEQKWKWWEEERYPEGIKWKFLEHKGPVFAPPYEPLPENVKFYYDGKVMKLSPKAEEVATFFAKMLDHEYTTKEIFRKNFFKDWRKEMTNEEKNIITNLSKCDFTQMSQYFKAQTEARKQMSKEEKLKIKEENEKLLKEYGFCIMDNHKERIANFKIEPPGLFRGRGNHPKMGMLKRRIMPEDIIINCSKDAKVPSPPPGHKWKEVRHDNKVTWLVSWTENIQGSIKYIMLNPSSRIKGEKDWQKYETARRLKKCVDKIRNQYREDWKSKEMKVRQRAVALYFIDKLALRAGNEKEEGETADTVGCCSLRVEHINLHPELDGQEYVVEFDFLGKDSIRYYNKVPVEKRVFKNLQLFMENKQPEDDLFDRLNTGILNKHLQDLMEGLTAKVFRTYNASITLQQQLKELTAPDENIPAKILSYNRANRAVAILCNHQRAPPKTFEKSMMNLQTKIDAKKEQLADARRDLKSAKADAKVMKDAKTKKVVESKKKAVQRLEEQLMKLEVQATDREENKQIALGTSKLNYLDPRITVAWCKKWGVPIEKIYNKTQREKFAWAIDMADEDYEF
The data set can be described thus: Inhibition of recombinant human topoisomerase-1-mediated relaxation of supercoiled pRYG DNA after 30 mins by ethidium bromide staining based assay.

Data set [1] in a line: Inhibition of RANKL/tumour necrosis factor alpha-induced formation of osteoclasts (unknown origin) by tartrate-resistant acid phosphatase staining based assay. It counts as functional.
The test system of the next data set is RAW264.7. The data set can be described thus: Cytotoxicity against mouse RAW264.7 cells assessed as reduction in cell viability by WST-1 assay. It counts as functional. On the technique in general: Tetrazolium dyes change colour on reduction, which living cells bring about.
A further data set deals with HeLa. The data set can be described thus: Induction of apoptosis in human HeLa cells. The format is functional, cell-based.
Another data set deals with HepG2. The data set can be described thus: Cytotoxicity against human HepG2 cells assessed as reduction in cell viability after 24 hrs by MTT assay. The format is functional. The following applies: HepG2, 24 h.
The target in data set [2] is Signal transducer and activator of transcription 3 (Homo sapiens) (UniProt P40763). Nature of the data set: Inhibition of IL-6-stimulated STAT3 (unknown origin) phosphorylation preincubated for 4 hrs followed by IL-6 addition measured after 24 hrs by luciferase reporter gene assay. (A reporter such as luciferase makes a cellular process visible.)
The nature of data set [3]: Tmax in Sprague-Dawley rat at 300 mg/kg, po by LC-ESI-IT-TOF/MS analysis. It counts as ADME, organism-based. The following applies: in vivo.
For the next data set, the system named is Osteoclast. Nature of the data set: Inhibition of calcitriol-induced formation of Sprague-Dawley rat osteoclasts by […]. The format is functional.
Data set [4] is described as follows: Inhibition of human T9A4 cells assessed as reduction in cholesterol synthesis after 30 mins in presence of [14C]acetate, [14C]mevanolate, 24,25-dihydro-[24,25-3H2]lanosterol, [3-3H]lathosterol by acetate incorporation assay. It counts as functional.

Converted amounts (≈) assume the structure as drawn.

Chain of Signal transducer and activator of transcription 3 (Homo sapiens) (P40763 whole entry): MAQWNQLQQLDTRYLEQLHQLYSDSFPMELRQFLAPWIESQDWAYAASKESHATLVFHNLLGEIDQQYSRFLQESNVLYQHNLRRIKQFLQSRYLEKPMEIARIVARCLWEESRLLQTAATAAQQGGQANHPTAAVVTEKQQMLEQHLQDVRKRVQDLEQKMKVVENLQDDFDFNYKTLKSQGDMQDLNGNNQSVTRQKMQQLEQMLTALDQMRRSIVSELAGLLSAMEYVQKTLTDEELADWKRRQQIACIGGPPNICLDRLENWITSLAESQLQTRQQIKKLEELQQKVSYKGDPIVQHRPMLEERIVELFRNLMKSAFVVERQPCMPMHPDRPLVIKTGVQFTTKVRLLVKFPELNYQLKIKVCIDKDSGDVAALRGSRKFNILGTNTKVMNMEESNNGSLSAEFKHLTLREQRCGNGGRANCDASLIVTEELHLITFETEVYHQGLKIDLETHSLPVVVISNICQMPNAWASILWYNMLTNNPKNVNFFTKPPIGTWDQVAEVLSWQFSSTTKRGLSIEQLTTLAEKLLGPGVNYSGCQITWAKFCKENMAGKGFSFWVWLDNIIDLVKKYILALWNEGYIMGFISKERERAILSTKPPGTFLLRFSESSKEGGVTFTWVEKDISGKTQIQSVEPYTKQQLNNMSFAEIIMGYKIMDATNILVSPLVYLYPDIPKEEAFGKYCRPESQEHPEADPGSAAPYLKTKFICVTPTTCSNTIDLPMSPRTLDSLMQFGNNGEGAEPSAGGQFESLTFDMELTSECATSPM

Broadly, the IC50 is the concentration that inhibits the measured activity by half. As to `CC(=O)O[C@H]1C[C@H]([C@H](C)CC/C=C(\C)C(=O)O)[C@@]2(C)CC=C3C(=CC[C@H]4C(C)(C)[C@H](O)CC[C@]34C)[C@]12C`, the IC50 on DNA topoisomerase 1 worked out at 25 µM. The term CC50 denotes the concentration at which the toxic effect on the cells reaches its halfway point. `C[C@H](CC(=O)C[C@H](C)C(=O)O)[C@H]1CC(=O)[C@@]2(C)C3=C(C(=O)C[C@]12C)[C@@]1(C)CCC(=O)C(C)(C)[C@@H]1C[C@@H]3O`: the IC50 was determined as 400 µM in data set [1] and 17.3 µM with HeLa. Also, the CC50 in the data set on RAW264.7 is greater than 400 µM. As for `C[C@H](CC(=O)C[C@@H](C)[C@H]1C[C@H](O)[C@@]2(C)C3=C(C(=O)C[C@]12C)[C@@]1(C)CCC(=O)C(C)(C)[C@@H]1C[C@@H]3O)C(=O)O` [GANODERIC ACID A], the CC50 in the data set with HepG2 was found to be 80 µM. In data set [2], the MIC was 60 µM (≈ 31 µg/mL). Usually Tmax stands for the time from dosing to the highest level. Take `C[C@H](CC(=O)C[C@@H](C)[C@H]1C[C@H](O)[C@@]2(C)C3=C(C(=O)C[C@]12C)[C@@]1(C)CC[C@H](O)C(C)(C)[C@@H]1C[C@@H]3O)C(=O)O` [GANODERIC ACID C2]: the Tmax in data set [3] is 3.9 min. The molecule `C/C(=C/CC[C@@H](C)[C@H]1CC[C@@]2(C)C3=C(CC[C@]12C)[C@@]1(C)CCC(=O)C(C)(C)[C@@H]1CC3=O)C(=O)O` [GANODERIC ACID DM] registered an IC50 in data set [1] of 30 µM. Also, the MIC in the data set with Osteoclast worked out at 10 µg/mL (≈ 21.3 µM). Besides, the CC50 with RAW264.7 came out at 65 µM. In the case of `C/C(=C\CC[C@@H](C)[C@H]1CC[C@@]2(C)C3=CC[C@H]4C(C)(C)[C@@H](O)CC[C@]4(C)C3=CC[C@]12C)C(=O)O` [GANODERIC ACID Y], the IC50 in data set [4] came to 1.4 µM.
